Results published in article PMC7230162, “Syntheses and Glycosidase Inhibitory Activities, and in Silico Docking Studies of Pericosine E Analogs Methoxy-Substituted at C6” (Marine Drugs, 2020).
Like-named read-outs stand apart in the source and are kept apart here. Blank lines part the entries; values can stand above or below the compound they belong to.

Tests used:
[1] = molecular target: β-glucosidase (Sweet Almond); experiment: β-glucosidase inhibitory activity assay (p-nitrophenyl-β-D-glucopyranoside); assay type: biochemical
Experimental: (§1) Infrared (IR) spectra were recorded on a 1720X Fourier transformation-infrared (FT-IR) spectrometer (Perkin Elmer, MA, USA) or an IRAffinity-1S FT-IR spectrometer (Shimadzu, Kyoto, Japan). High-resolution mass spectra (HRMS) were recorded on a JMS-700 (2) mass spectrometer (JEOL, Tokyo, Japan). Nuclear magnetic resonance (NMR) spectra were recorded at 27 °C on 400-MR-DD2 (Agilent Technologies, CA, USA) and 600-DD2 (Agilent Technologies, CA, USA) instruments in CDCl3 or acetone-d6 using tetramethylsilane as an internal standard. Specific rotations were measured with a JASCO P-2300 spectrometer (JASCO Co., Tokyo, Japan). Liquid column chromatography was conducted on silica gel (Fuji Silysia FL-60D). Analytical thin layer chromatography (TLC) was performed on Silicagel 70 F254 plates (Wako Pure Chemical Industries, Tokyo, Japan), and compounds were detected by dipping the plates into an ethanolic solution of phosphomolybdic acid followed by heating. Microwave (MW)-aided reactions were carried out in a Biotage Initiator® reactor (PartnerTech Atvidaberg AB for Biotage Sweden AB, Uppsala, Sweden). NaBH4 and trifluoroacetic acid (TFA) were purchased from Wako Pure Chemical Industries (Wako Pure Chemical Industries, Tokyo, Japan). BF3·Et2O was purchased from Sigma-Aldrich Co., LLC (St. Lewis, MO, USA). DMP was purchased from TCI (Tokyo Chemical Industry Co., Ltd., Tokyo, Japan). […] Deoxygalactonojirimycin was purchased from Funakoshi Co., Ltd., Tokyo, Japan).
(§2) After 20 min incubation at 37 °C, the reaction was quenched by addition of Na2CO3 solution (0.5 M, 100 μL). The amount of liberated p-nitrophenol was measured colorimetrically at 400 nm (optical density at 400 nm: ODtest).
Assays of β-glucosidase, α-mannosidase, β-mannosidase, and β-galactosidase inhibitory activities were carried out as above using p-nitrophenyl-β-D-glucopyranoside, p-nitrophenyl-α-D-mannopyranoside, p-nitrophenyl-β-D-mannopyranoside, and p-nitrophenyl-β-D-galactopyranoside as substrates.

α-glucosidase (Yeast) [2] = molecular target: T1, α-glucosidase (Yeast) (Saccharomyces cerevisiae, UniProt P53341); experiment: α-glucosidase inhibitory activity assay (p-nitrophenyl-α-D-glucopyranoside); assay type: biochemical
From the text: (§3) The synthesized compounds were subjected to glycosidase inhibitory activity assays (Table 1). Herein, α-galactosidase (from green coffee bean) and β-galactosidase (from bovine lever) were used in addition to the three previously employed glycosidases (α-glucosidase, β-glucosidase, and α-mannosidase). To facilitate comparison across studies, we used the same batches of the three abovementioned glycosidases as those employed before. Some compounds were not tested against all five enzymes because of the limited amount of materials.
as §1, §2

[3] = molecular target: β-glucosidase (Sweet Almond); design: method as in PMID 28124983; conditions: values of a previous work; cited from earlier work
[4] = molecular target: T2, α-mannosidase (Jack Bean) (Canavalia ensiformis, UniProt C0HJB3); conditions: read-out: IC50 (M) α-mannosidase (Jack Bean); values of a previous work; cited from earlier work
T2 construct: purchased Sigma-Aldrich Co., LLC lot 055K7047 (catalogue number not given)

[5] = molecular target: T3, β-galactosidase (Bovine Liver) (Bos taurus, UniProt Q58D55); experiment: β-galactosidase inhibitory activity assay (p-nitrophenyl-β-D-galactopyranoside); assay type: biochemical
T3 sequence (Q58D55 28-653): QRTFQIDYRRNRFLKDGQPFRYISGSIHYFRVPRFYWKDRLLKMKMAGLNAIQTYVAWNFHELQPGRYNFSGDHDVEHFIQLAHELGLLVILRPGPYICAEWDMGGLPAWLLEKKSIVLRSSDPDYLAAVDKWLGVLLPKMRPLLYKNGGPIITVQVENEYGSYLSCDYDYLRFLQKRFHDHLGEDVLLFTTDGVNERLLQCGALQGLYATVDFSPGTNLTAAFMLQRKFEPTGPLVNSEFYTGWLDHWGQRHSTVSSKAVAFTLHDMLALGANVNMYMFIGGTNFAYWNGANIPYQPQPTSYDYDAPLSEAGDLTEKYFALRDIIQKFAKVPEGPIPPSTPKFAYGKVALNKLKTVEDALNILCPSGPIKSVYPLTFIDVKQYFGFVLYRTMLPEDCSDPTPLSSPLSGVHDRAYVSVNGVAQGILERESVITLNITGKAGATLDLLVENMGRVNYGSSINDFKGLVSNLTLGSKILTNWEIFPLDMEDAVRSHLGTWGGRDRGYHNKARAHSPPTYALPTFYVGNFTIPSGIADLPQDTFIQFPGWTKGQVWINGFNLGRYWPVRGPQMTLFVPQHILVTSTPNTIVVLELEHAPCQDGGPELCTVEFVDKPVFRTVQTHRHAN
From the text: as §3
Infrared (IR) spectra were recorded on a 1720X Fourier transformation-infrared (FT-IR) spectrometer (Perkin Elmer, MA, USA) or an IRAffinity-1S FT-IR spectrometer (Shimadzu, Kyoto, Japan). High-resolution mass spectra (HRMS) were recorded on a JMS-700 (2) mass spectrometer (JEOL, Tokyo, Japan). Nuclear magnetic resonance (NMR) spectra were recorded at 27 °C on 400-MR-DD2 (Agilent Technologies, CA, USA) and 600-DD2 (Agilent Technologies, CA, USA) instruments in CDCl3 or acetone-d6 using tetramethylsilane as an internal standard. Specific rotations were measured with a JASCO P-2300 spectrometer (JASCO Co., Tokyo, Japan). […]
After 20 min incubation at 37 °C, the reaction was quenched by addition of Na2CO3 solution (0.5 M, 100 μL). The amount of liberated p-nitrophenol was measured colorimetrically at 400 nm (optical density at 400 nm: ODtest). […]

α-glucosidase (Yeast) [6] = molecular target: T1, α-glucosidase (Yeast); conditions: cited from earlier work; for IC50: values of a previous work

T2 sequence (C0HJB3 1-562): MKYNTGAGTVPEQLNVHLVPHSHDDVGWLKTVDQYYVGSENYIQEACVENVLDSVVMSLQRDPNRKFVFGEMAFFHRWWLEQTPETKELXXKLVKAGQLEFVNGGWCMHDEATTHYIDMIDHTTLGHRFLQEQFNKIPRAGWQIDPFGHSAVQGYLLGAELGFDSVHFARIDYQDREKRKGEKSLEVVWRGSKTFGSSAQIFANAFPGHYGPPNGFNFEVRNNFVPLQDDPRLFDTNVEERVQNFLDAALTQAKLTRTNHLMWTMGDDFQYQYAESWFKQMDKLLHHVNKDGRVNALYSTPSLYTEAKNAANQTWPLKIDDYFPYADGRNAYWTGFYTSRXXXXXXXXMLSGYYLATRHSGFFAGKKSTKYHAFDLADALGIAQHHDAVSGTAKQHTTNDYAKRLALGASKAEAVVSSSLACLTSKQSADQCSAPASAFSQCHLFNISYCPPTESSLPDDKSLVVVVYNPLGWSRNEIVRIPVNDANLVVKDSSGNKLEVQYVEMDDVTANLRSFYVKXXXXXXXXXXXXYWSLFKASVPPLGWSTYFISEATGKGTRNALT
T2 sequence (C0HJB3 563-981): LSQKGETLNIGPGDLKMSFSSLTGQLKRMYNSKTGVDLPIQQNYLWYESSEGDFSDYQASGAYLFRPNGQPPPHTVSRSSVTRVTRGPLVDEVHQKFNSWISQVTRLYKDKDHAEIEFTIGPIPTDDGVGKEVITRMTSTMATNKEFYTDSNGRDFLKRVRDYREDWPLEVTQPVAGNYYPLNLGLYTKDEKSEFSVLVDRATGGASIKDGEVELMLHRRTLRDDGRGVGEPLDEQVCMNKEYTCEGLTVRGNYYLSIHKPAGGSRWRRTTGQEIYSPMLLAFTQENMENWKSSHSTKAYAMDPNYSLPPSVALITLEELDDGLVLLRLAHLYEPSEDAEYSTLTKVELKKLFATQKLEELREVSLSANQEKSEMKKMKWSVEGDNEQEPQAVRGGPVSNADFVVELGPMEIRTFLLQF
T1 sequence (P53341 whole entry): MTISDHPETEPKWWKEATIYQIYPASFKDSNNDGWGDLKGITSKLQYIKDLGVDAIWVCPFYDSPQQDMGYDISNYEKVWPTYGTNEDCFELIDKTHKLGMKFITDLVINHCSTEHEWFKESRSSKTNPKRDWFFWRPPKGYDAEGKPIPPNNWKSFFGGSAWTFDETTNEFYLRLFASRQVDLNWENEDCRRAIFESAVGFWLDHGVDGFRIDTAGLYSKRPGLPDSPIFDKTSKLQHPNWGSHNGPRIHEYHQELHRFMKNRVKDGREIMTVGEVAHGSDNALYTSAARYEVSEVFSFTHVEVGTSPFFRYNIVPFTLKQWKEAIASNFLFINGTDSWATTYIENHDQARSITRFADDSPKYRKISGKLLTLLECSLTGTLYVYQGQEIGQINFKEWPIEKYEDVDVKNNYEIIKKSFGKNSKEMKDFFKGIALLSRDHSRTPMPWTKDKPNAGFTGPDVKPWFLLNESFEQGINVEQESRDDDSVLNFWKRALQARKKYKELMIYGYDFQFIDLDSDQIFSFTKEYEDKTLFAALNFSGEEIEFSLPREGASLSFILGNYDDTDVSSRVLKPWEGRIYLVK

SMILES: COC(=O)C1=CC(O)C(O)C(O)C1OC1C(OC)C(C(=O)OC)=CC(O)C1O (single isomer, unassigned; (+)) [(+)-6]
α-glucosidase inhibitory activity (in words) (α-glucosidase (Yeast) [2]): moderately inhibited

SMILES: COC(=O)C1=CC(O)C(O)C(OC2C(C(=O)OC)=CC(O)C(O)C2O)C1Cl (single isomer, unassigned; (-)) [(−)-5]
IC50 [3]: > 7.8 mM
IC50 [4]: > 0.0078 M

SMILES: COC(=O)C1=C[C@H](O)[C@H](O)[C@H](O[C@H]2C(C(=O)OC)=C[C@@H](O)[C@@H](O)[C@H]2O)[C@H]1Cl [(+)-4, (+)-pericosine E]
α-glucosidase inhibitory activity (in words) (α-glucosidase (Yeast) [6]): potent activity
IC50 (α-glucosidase (Yeast) [6]): 0.031 mM
IC50 [3]: > 7.8 mM
IC50 [4]: > 0.0078 M

SMILES: COC(=O)C1=C[C@@H](O)[C@@H](O)[C@@H](O[C@@H]2C(C(=O)OC)=C[C@H](O)[C@H](O)[C@@H]2O)[C@@H]1Cl [(−)-4, (−)-pericosine E]
IC50 (α-glucosidase (Yeast) [6]): 1.5 mM
IC50 [3]: > 7.8 mM
IC50 [4]: > 0.0078 M

SMILES: OC[C@H]1NC[C@H](O)[C@@H](O)[C@H]1O [Deoxygalactonojirimycin, reference compound]
IC50 [5]: 0.14 mM

SMILES: OC[C@H]1NC[C@H](O)[C@@H](O)[C@@H]1O [Deoxynojirimycin (DNJ), 1-Deoxynojirimycin, reference compound]
IC50 [1]: […]

More lines, main results first:

α-glucosidase inhibitory activity (in words) (α-glucosidase (Yeast) [2]): moderately inhibited
SMILES: COC(=O)C1=CC(O)C(O)C(O)C1OC1C(OC)C(C(=O)OC)=CC(O)C1O (single isomer, unassigned; (-)) [(−)-7]

α-glucosidase inhibitory activity (in words) (α-glucosidase (Yeast) [2]): moderately inhibited
SMILES: COC(=O)C1=CC(O)C(O)C(O)C1OC1C(OC)C(C(=O)OC)=CC(O)C1O (single isomer, unassigned; (-)) [(−)-8]

α-glucosidase inhibitory activity (in words) (α-glucosidase (Yeast) [2]): moderately inhibited
SMILES: COC(=O)C1=CC(O)C(O)C(O)C1OC1C(OC)C(C(=O)OC)=CC(O)C1O (single isomer, unassigned; (-)) [(−)-24]
β-galactosidase inhibitory activity (in words) [5]: showed β-galactosidase inhibitory activities

IC50 [1]: […]
SMILES: COC(=O)C1=C[C@@H](O)[C@@H](O)[C@@H](O[C@H]2C(C(=O)OC)=C[C@@H](O)[C@@H](O)[C@@H]2O)[C@@H]1OC [(−)-21]
